Data taken from patent US20120156150A1, “Composition for Improving Skin Condition Comprising Extract from Black Tea as Active Ingredient” (Keimyung University Industry Academic Cooperation Foundation, priority 2010, published 2012).
Marks after values point to notes of the source that are not given here. Blank lines part the entries; values can stand above or below the compound they belong to.

Experiments:
Melan-a cells [1] = experiment: Melanin analysis in Melan-a cells; type: cell-based, mouse; settings: 12.5 μg/mL, compared with the control group
Protocol: (§1) Melan-a cells were purchased from Dr. Dorothy Bennett (St. George's Hospital, UK). Immortalized Melan-a cells with high pigment content are derived from C57BL/6 mouse. The cells were cultured using Roswell Park Memorial Institute (RPMI)-1640 medium containing 10% fetal bovine serum (FBS), 1% penicillin/streptomycin (P/S) and 200 nM 12-O-tetradecanoylphorbol 13-acetate (TPA) in a 10% CO2 incubator at 37° C. for 72 hours.
Melan-a cells were seeded on a 96-well plate (2×10^4 cells/well) and cultured in a 10% CO2 incubator at 37° C. for 24 hours. Then, after adding 200 μL of AT, KA, EGCG, GT, WT or BT diluted to various concentrations (1.563, 3.125, 6.25 and 12.5 μg/mL) using RPMI-1640 medium to the wells, the cells were cultured in a 10% CO2 incubator at 37° C. for 72 hours, and then washed. This procedure was repeated several times. After dissolving Melanin with 1N NaOH, absorbance was measured at 490 nm using an ELISA reader. Melanin content (%) was calculated according to the following equation: % melanin content=(Asample/Ablank)×100, wherein Ablank is the absorbance of the control group (excluding the test sample) and Asample is the absorbance of the test compound.

Melan-a cells [2] = experiment: MTT assay, viability of Melan-a cells; type: cell-based, mouse
Protocol: as §1
Melan-a cells were seeded on a 96-well plate (0.5×10^4 cells/well) and cultured in a 10% CO2 incubator at 37° C. for 24 hours. After adding 200 μL of AT, KA, EGCG, GT, WT or BT diluted to various concentrations (3.125, 6.25, 12.5, 25 and 50 μg/mL) using RPMI-1640 medium to the wells, the cells were cultured in a 10% CO2 incubator at 37° C. for 48 hours. Then, the cells were cultured in a medium containing […] in a 10% CO2 incubator at 37° C. for 3 hours. Subsequently, after settling the cells by centrifuging the plate at 1,000 rpm for 10 minutes, the medium was removed. Then, 200 μL of DMSO was added and the cells were suspended for 15 minutes in a plate shaker. Absorbance was measured at 540 nm using an ELISA reader. Cell viability (%) was calculated according to the following equation: % cell viability=(Asample/Ablank)×100, wherein Ablank is the absorbance of the control group (excluding the test sample) and Asample is the absorbance of the test compound.

[3] = Electron donating ability (DPPH radical scavenging, Blois' method)
Protocol: DPPH radical scavenging effect was measuring according to the Blois' method (1958). […] After adding 1 mL of the test sample in a test tube, 4×10^−4 M DPPH (4 mL) was added. The resulting mixture was shaken vigorously, allowed to stand in warm water of 60° C. for 10 seconds, and absorbance was measured at 525 nm. BHT was used as the positive control group. Then, free radical scavenging activity of each solution was calculated as “% inhibition” according to the following equation: % inhibition=[1−(Asample/Ablank)]×100, wherein Ab1ank is the absorbance of the control group (excluding the test sample) and Asample is the absorbance of the test compound.

tyrosinase [4] = molecular target: T1, tyrosinase (Mus musculus, UniProt P11344); experiment: Cell-extracted tyrosinase activity of Melan-a cells; type: biochemical; settings: 12.5 μg/mL, compared with the control group
T1 construct: endogenous in cells; host or cells: Melan-a cells
T1 sequence (P11344 19-533): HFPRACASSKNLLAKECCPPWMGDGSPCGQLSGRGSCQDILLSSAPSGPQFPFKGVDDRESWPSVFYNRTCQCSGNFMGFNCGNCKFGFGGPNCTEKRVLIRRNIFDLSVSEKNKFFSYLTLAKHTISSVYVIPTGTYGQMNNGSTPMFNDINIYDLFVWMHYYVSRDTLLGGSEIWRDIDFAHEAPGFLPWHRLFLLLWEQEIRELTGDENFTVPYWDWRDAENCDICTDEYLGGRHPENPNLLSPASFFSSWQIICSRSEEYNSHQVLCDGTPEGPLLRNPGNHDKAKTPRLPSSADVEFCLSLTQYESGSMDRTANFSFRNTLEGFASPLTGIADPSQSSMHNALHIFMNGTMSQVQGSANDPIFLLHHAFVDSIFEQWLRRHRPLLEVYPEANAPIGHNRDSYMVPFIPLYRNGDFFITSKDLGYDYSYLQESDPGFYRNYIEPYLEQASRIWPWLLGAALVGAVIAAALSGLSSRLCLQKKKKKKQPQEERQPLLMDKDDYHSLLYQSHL
Protocol: (§2) Melan-a cells were seeded on a 60 φ cell culture dish (4×10^5 cells/well) and cultured in a 10% CO2 incubator at 37° C. for 72 hours. After washing with PBS, the cells were suspended by adding 200 μL of 1% triton X-100 to the culture dish, transferred to an e-tube, and fixed on ice. 60 minutes later, after shaking for 2-3 seconds, the cells were centrifuged at 4° C. and 14,000 rpm for 20 minutes to obtain 50 μL of protein, which was mixed with 49 μL of 0.1 M phosphate buffer (pH 6.8) and 1 μL of AT, EGCG, GT, WT or BT (1.563, 3.125, 6.25 or 12.5 μg/mL). After allowing the mixture to stand for 1 hour and adding 100 μL of L-DOPA, the mixture was incubated in a 10% CO2 incubator at 37° C. for 1 hour. Absorbance was measured at 490 nm using an ELISA reader. Tyrosinase activity was calculated according to the following equation: % inhibition=[1−(Asample/Ablank)]×100, wherein Ablank is the absorbance of the control group (excluding the test sample) and Asample is the absorbance of the test compound.

tyrosinase [5] = experiment: Western blotting, expression of tyrosinase protein in Melan-a cells; type: cell-based, mouse
Protocol: Protein concentration in the cell lysate was measured using the Pierce protein assay kit (Pierce Biotechnology, Inc., Rockford, USA), using BSA as standard. After adding same quantity of protein ([…]) on each lane, the proteins were separated by electrophoresis on 10% polyacrylamide gel. After transblotting onto nitrocellulose membrane, the membrane was incubated with PEP7 (1:10000 dilution, anti-tyrosinase antibody), PEP1 (1:10000 dilution, anti-TRP1 antibody) and PEP8 (1:10000 dilution, anti-TRP2 antibody). Then, the membrane was incubated with horseradish peroxidase-conjugated anti-rabbit IgG (1:1000 dilution; Amersham, Bucks, UK). Immunoreactive bands were detected by chemiluminescence using the ECL western blotting detector (Amersham, Bucks, UK). Band intensity was measured using the ImageJ program (NIH, Bethesda, USA). β-actin was used as internal control group for the immunoblotting.

tyrosinase [6] = molecular target: T1, tyrosinase; experiment: Intracellular tyrosinase activity of Melan-a cells; type: biochemical; settings: 12.5 μg/mL, compared with the control group
Protocol: as §2, with “for 24” for “for 72”, “and Asampie” for “and Asample”

[7] = system: UVB-induced hyperpigmentation; experiment: Melanin index (mexameter), brown guinea pig; type: in vivo; settings: 2% sample topical
Protocol: Three brown guinea pigs weighing 450-550 g were purchased from Oriental Yeast Co. Ltd. (OYC; Japan). The animals were accustomed to the test environment for 7 days. The animals were housed in individual cages under the environment of 22±1° C. and 50±5% relative humidity with 12-hour alternate dark/light cycles. Feed and water were given ad libitum.
UVB-induced hyperpigmentation was elicited on the back of the brown guinea pig according to the method of Choi et al. (2004). After anesthetizing the guinea pig with ketamine hydrochloride (100 mg/kg BW), 24 separate areas (φ 12 mm) on the skin of the back was exposed to UVB radiation (302-nm sunlamp). The areas were exposed to UVB of 500 mJ/cm^2 for 3 consecutive weeks, once a week. That is, a total of 1,500 mJ/cm^2 of UVB was radiated.
On day 10 after the final UVB radiation, 30 μL (1.06 mg/cm^2/day) of 2% HQ, EGCG, GT, WT or BT was topically applied for 4 weeks to the hyperpigmented areas (9 areas per each) using a micropipette, twice a day, and 4 days a week. Saline was used as control, and propylene glycol:ethanol:water (5:3:2) was used as vehicle control.
Before and after the topical application of the test sample, change in melanin pigmentation was measured 3 times in a non-invasive manner using a mexameter, once a week. The degree of pigmentation was analyzed by averaging the measured values.

S-100 protein = experiment: Immunohistochemical S-100 staining; type: in vivo, brown guinea pig; settings: week 4; 2% sample
Protocol: (§3) After dehydration, followed by washing with xylene and embedding in paraffin, 4 μm-thick samples were prepared. The sample was adhered on a coating slide and stained using the BenchMark XT automated immunostainer (Ventana Medical Systems, USA) after removing paraffin. […] Following reaction with S-100 and HMB-45 primary antibodies diluted to 1:100, the sample was washed with reaction buffer, reacted with biotin for 20 minutes, and then reacted with streptavidin for 25 minutes. After coloring with diaminobenzidine (DAB) using the Ventana detection kit), the sample was stained for observation using an optical microscope.

gp100 protein = experiment: Immunohistochemical HMB-45 staining (gp100); type: in vivo, brown guinea pig; settings: week 4; 2% sample
Protocol: as §3

[8] = system: melanin pigmentation in the epithelium; experiment: Fontana-Masson's silver staining, melanin-pigmented area; type: in vivo, brown guinea pig; settings: week 4; 2% sample
Protocol: In order to observe the morphological change of the skin tissue using an optical microscope, the extracted skin tissue was fixed in a 10% neutral formalin solution for 12 hours and washed with flowing water. After dehydrating in 70, 80, 95 and 100% ethanol followed by washing with xylene, the tissue was embedded in paraffin and 4 μm-thick samples were prepared using a microtome.
Paraffin was removed from the sample using xylene. After staining the sample for 60 minutes in silver nitrate solution at 56° C. according to the Masson's method (1928), followed by washing, color-toning 0.2% gold chloride solution and washing again, the sample was kept in 5% sodium thiosulfate solution for 5 minutes. Subsequently, after washing the sample once again, followed by counterstaining in nuclear fast red solution, dehydration in 95%, 95%, 100% and 100% alcohol and washing with xylene, the sample was put in Canada balsam for microscopic observation. The percentage of the melanin-pigmented area was calculated using an image analysis software.

Compound: O=c1cc(CO)occ1O [KA, kojic acid]
- melanin content decreased by (Melan-a cells [1]): 7%
- maximum permissible level (MPL) (Melan-a cells [2]; mouse, 48 h): exceeds 50 μg/mL
- Electron donating ability ([3]; 800 μg/mL): 19%

- tyrosinase activity in cell extract (decreased) by (tyrosinase [4]): 13%
- intracellular tyrosinase activity decreased by (tyrosinase [6]): 12%
Compound: OC[C@H]1O[C@@H](Oc2ccc(O)cc2)[C@H](O)[C@@H](O)[C@@H]1O [AT, arbutin]
- melanin content decreased by (Melan-a cells [1]): 18%
- maximum permissible level (MPL) (Melan-a cells [2]; mouse, 48 h): exceeds 50 μg/mL
- expression of tyrosinase protein (tyrosinase [5]): no significant decrease
- Electron donating ability ([3]; 800 μg/mL): 44%

Compound: Cc1cc(C(C)(C)C)c(O)c(C(C)(C)C)c1 [BHT, 2,6-di-tert-butyl-4-methylphenol]
- Electron donating ability ([3]; 800 μg/mL): 89%
- Electron donating ability ([3]; 1,000 μg/mL): 55%

- tyrosinase activity in cell extract (decreased) by (tyrosinase [4]): 18%
- intracellular tyrosinase activity decreased by (tyrosinase [6]): 61%
Compound: O=C(O[C@@H]1Cc2c(O)cc(O)cc2O[C@@H]1c1cc(O)c(O)c(O)c1)c1cc(O)c(O)c(O)c1 [EGCG, epigallocatechin gallate]
- melanin index ([7]; week 0): 723.5 ± 11.3^a AU
- melanin index ([7]; week 1): 704.1 ± 12.5^a* AU
- melanin index ([7]; week 2): 675.9 ± 12.4^c AU
- melanin index ([7]; week 3): 636.6 ± 12.2^b AU
- melanin index ([7]; week 4): 582.9 ± 12.8^b AU
- melanin index decreased by, as compared to the group C ([7]; week 4): 17%
- melanin content decreased by (Melan-a cells [1]): 29%
- maximum permissible level (MPL) (Melan-a cells [2]; Melan-a cells): 12.5 µg/mL
- % of S-100 Protein (S-100 protein): 5.3 ± 0.7^bc %
- S-100 Protein area (S-100 protein): 611 ± 81 μm^2
- area of S-100 protein expression, decrease by, as compared to the control groups (S-100 protein): 62%
- % of Melanin pigment (Table 5, gp 100 protein) (gp100 protein): 5.3 ± 0.8^c %
- Melanin pigment (area; Table 5, gp 100 protein) (gp100 protein): 600 ± 107 μm^2
- area of gp 100 protein expression, decrease by, as compared to the group C (gp100 protein): 61%
- Electron donating ability ([3]; 800 μg/mL): 94%
- % of melanin pigment [8]: 10.5 ± 2.0^c %
- Melanin pigment area [8]: 1174 ± 189 μm^2
- melanin pigmented area decreased by, as compared to the control group [8]: 48%
